From patent publication EP0097070A2, “Process for preparing ellipticine derivatives, compounds so obtained and medicaments containing them” (ELF SANOFI, priority 1982, dated 1983)
pIC50: −log10 of the molar value. Read-outs that look alike come from different tables or passages of the source.

What was measured:
[1] = test system: souris femelles de type DSA/2; details: mouse, in vivo, ip, 43200 min
Description: Cette étude, effectuée sur des souris femelles de type DSA/2 d'un poids corporel moyen de 20 g a permis de déterminer la DL0, qui représente la dose unique maximum administrable par une injection intrapéritonéale sans qu'aucune mort intervienne dans les 30 jours qui suivent l'administration du produit.

[2] = test system: cellules leucémiques L 1210; assay: Cytotoxicity: growth inhibition of L 1210 cells in culture; type: cell-based; details: concentration giving 50 p. 100 inhibition of cell multiplication, 48 hours of culture, DMSO 1 p. 100 final, read-out: ID50 (the source's name)
Description: Les substances à étudier sont dissoutes dans du DMSO (1 p. 100 final) dont on a préalablement vérifié l'innocuité. Des quantités croissantes du produit à tester sont ajoutées au temps ? des numérations sont faites après 24 heures et 48 heures de contact. Des sérias témoins sont constituées avec ces quantités de DMSO équivalentes à celles des séries traitées. […] 5 Le pourcentage d'inhibition de la croissance cellulaire est déterminé par le rapport […] de croissance du témoin sur […] de croissance des essais pour différentes concentrations de produit à tester après 24 heures et 48 heures de culture Une relation dose effet est déterminée selon […] et WILCOXON (C. DUPONT, […].

[3] = test system: cellules tumorales L 1210; assay: Antitumour effect: increase in life span of mice inoculated with L 1210 cells; type: in vivo, souris; details: 10^5 L 1210 cells i.p.; compound i.p. at dose DL0/2 (half the LD0 dose), 20 hours after inoculation; versus control animals; significant if above 25 p. 100
Description: Les cellules tumorales L 1210 sont inoculées par la voie intrapéritonéale à ces souris femelles OBA/2 d'un poids corporel moyen de 20g en une injection unique de 10^5 cellules; chez les animaux traités, le composé étudié est injecté à la dose de OL0/2 également par la voie intrapéritonéale 20 heures après la première injection des cellules L 1210.
L'effet antitumoral est apprécié par la détermination de l'augmentation de la durée de survie (ILS : increase in life Span) des animaux traités par rapport aux animaux témoins qui n'ont reçu que les cellules tumorales.
L'augmentation de la durée de survie est considérée comme significative lorsqu'elle est supérieure à 25 p. 100.
Les résultats obtenus sont consignés dans le tableau suivant qui indique pour les dérivés testés, le pourcentage d'augmentation de la durée de survie par rapport au témoin.

Compound	DL0 [1] [mg/kg]	pIC50 ([2]; Mus musculus, L1210)	POURCENTAGE D'AUGMENTATION DE LA DUREE DE SURVIE (ILS) [3]	pIC50 [2]
Cc1c2cc[n+](C)cc2c(C)c2c1[nH]c1ccc(O)c(N=C(CC(C)C)C(=O)O)c12 [dérivé n° 1, acétate es méthyl-2 hydroxy-9 leucine-10, elliopticinium]	10	6.55	35 p. 100	–
Cc1c2cc[n+](C)cc2c(C)c2c1[nH]c1ccc(O)c(N=C(C(=O)O)C(C)C)c12 [dérivé n° 2, acétate de méthyl-2 hydroxy-9 valine 10 ellipticinium]	15	6.51	31,3 p. 100	–
Cc1c2cc[n+](C)cc2c(C)c2c1[nH]c1ccc(O)c(N=CC(=O)O)c12 [dérivé n° 3]	20	6.27	–	–
Cc1c2cc[n+](C)cc2c(C)c2c1[nH]c1ccc(O)c(N=C(Cc3c[nH]cn3)C(=O)O)c12 [dérivé n° 4]	–	5.61	–	–
CC(=Nc1c(O)ccc2[nH]c3c(C)c4cc[n+](C)cc4c(C)c3c12)C(=O)O [dérivé n° 5, scétate ce méthyl-2 hydroxy-9 elanine-10 ellipricinium]	20	6.70	–	–
Cc1c2cc[n+](C)cc2c(C)c2c1[nH]c1ccc(O)c(N=C(CCC(=O)O)C(=O)O)c12 [dérivé n° 6, acétate de méthyl-2 hydroxy-9 glutamyle-10 ellipticinium]	–	4.63	–	–
CC(=O)NC(CSc1c(O)ccc2[nH]c3c(C)c4cc[n+](C)cc4c(C)c3c12)C(=O)O (stereo not shown) [dérivé n° 8, Hexafluorophosphate de méthyl-2 hydroxy-9 N-acétyl cystéin-10 ellipticinium]	–	5.95	–	–
Cc1c2cc[n+](C)cc2c(C)c2c1[nH]c1ccc(O)c(SCC(NC(=O)CCC(N)C(=O)O)C(=O)NCC(=O)O)c12 (stereo not shown) [dérivé n° 9, hexafluorophosphata de méthyl-2 hydroxy-9 glutathion-10 ellipticinium]	–	5.79	–	–
Hexafluorophosphate de méthyl-2 hydroxy-8 méthylcystéine-10 ellipticinium [dérivé n° 7]	–	–	–	6.10
acétate de méthyl -2 oxo -9 (guanylyl -5' -P)-10 ellipticinium [dérivé n° 13]	–	–	–	< 6.00
acétate de méthyl-2 oxo -9 (adényl -5'-P)-10 ellioticinium [dérivé n° 12]	–	–	–	< 6.10
acétate de méthyl-2 oxo-9 adényl-10 ellipticinium [dérivé n° 10]	–	–	–	6.30
acétate de méthyl-2 oxo-9 guanosyl-10 ellipticinium [dérivé n° 11]	–	–	–	6.12
